Assay results as given in US20050239656A1, “Pyridine compounds or salts thereof and herbicides containing the same” (priority 2002, published 2005).

The molecules below were run on barnyardgrass (assay: Test Example 1: foliage treatment, upland pot test). Settings: active ingredient 500 g/ha, observed 18th to 23rd day, 0 = non-treated, 100 = complete kill.
Format: in vivo, Echinochloa crus-galli L.
Outline: (§1)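 Each plant species was sprayed once on its foliage, with wheat at 1.3–2.4, soybean at 0.1–0.4, barnyardgrass at 1.3–2.8 and rice at 1.2–2.6 leaves. Visual ratings of growth inhibition, 0 to 100%, followed 18–23 days later.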

| Structure (SMILES) | Growth controlling degree (%) Barnyardgrass |
| --- | --- |
| CC(C)C(c1cnccc1C(F)(F)F)N(C)S(=O)(=O)c1ccc(F)cc1 (racemic) [I-124] | 80% |

These molecules were tested on green foxtail (assay: Test Example 1: foliage treatment, upland pot test). Settings: active ingredient 500 g/ha, observed 18th to 23rd day, 0 = non-treated, 100 = complete kill.
Format: in vivo, Setaria viridis L.

| Structure (SMILES) | Growth controlling degree (%) Green foxtail |
| --- | --- |
| CC(C)C(c1cnccc1C(F)(F)F)N(C)S(=O)(=O)c1ccc(F)cc1 (racemic) [I-124] | 70% |

Each molecule was assayed on japanese bulrush (assay: Test Example 3: paddy pot test, application under submerged conditions). Settings: active ingredient 250 g/ha; submerged application at 0.5 leaf stage; visually observed 14 days after application; 0 = non-treated, 100 = complete kill.
Format: in vivo, Scirpus juncoides
Outline: (§2)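 Seeds were sown in flooded paddy soil (0.5–1 cm water), wapato tubers were planted 1–2 days later, and water was then held at 3–4 cm. Diluted wettable powder or emulsifiable concentrate was pipetted into the water at the 0.5 leaf or primary leaf stage. Growth control was visually scored at 14 days (0–100%).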

| Structure (SMILES) | Growth controlling degree (%) Japanese bulrush |
| --- | --- |
| CC(C)C(c1cnccc1C(F)(F)F)N(C)S(=O)(=O)c1ccc(F)cc1 (racemic) [I-124] | 70% |

These molecules were tested on crabgrass (assay: Test Example 1: foliage treatment, upland pot test). Settings: active ingredient 500 g/ha, observed 18th to 23rd day, 0 = non-treated, 100 = complete kill.
Format: in vivo, Digitaria sanguinalis L.

| Structure (SMILES) | Growth controlling degree (%) Crabgrass |
| --- | --- |
| CC(C)C(c1cnccc1C(F)(F)F)N(C)S(=O)(=O)c1ccc(F)cc1 (racemic) [I-124] | 95% |

Each molecule was assayed on barnyardgrass (assay: Test Example 2: soil surface treatment, upland pot test). Settings: active ingredient 500 g/ha, observed 20th to 28th day.
Format: in vivo, Echinochloa crus-galli L.
Outline: (§3)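 Upland soil in pots of 1/170,000 ha is sown; on day 1 after sowing the formulated compound (wettable powder or emulsifiable concentrate, predetermined a.i. amount, water volume 1,500 L/ha) is applied to the soil surface with a small sprayer. Percent control is judged by eye 20–28 days later.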

| Structure (SMILES) | Growth controlling degree (%) Barnyardgrass |
| --- | --- |
| CC(C)C(c1cnccc1C(F)(F)F)N(C)S(=O)(=O)c1ccc(F)cc1 (racemic) [I-124] | 100% |

Each molecule was assayed on wheat (assay: Test Example 1: foliage treatment, upland pot test). Settings: crop, active ingredient 500 g/ha, observed 18th to 23rd day, 0 = non-treated, 100 = complete kill.
Format: in vivo, Triticum spp.
Description: Upland field soil was put into a 1/170,000 ha pot, and seed of various plants were sown. Then, when the plants reached predetermined leaf stages ((1) barnyardgrass: 1.3 to 2.8 leaf stages, (2) crabgrass: 1.0 to 2.8 leaf stages, (3) green foxtail: 1.3 to 2.6 leaf stages, (4) redroot pigweed: 0.1 to 1.2 leaf stages, (5) prickly sida: 0.1 to 1.2 leaf stages, (6) velvetleaf: 0.1 to 1.2 leaf stages, (7) tall morningglory: 0.1 to 1.5 leaf stages, (8) rice: 1.2 to 2.6 leaf stages, (9) wheat: 1.3 to 2.4 leaf stages, (10) corn, 2.1 to 3.2 leaf stages, (11) soybean: 0.1 to 0.4 leaf stage), a wettable powder or emulsifiable concentrate having the compound of the present invention formulated in accordance with a usual formulation method, was weighed so that the active ingredient would be a predetermined amount, and diluted with water in an amount of 500 L/ha. To the diluted solution, 0.1% (v/v) of agricultural spreader was added. The herbicide thus adjusted was applied by a small size sprayer for foliage treatment. On the 18th to 23rd days after the application of the herbicide, the growth of the respective plants was visually observed, and the herbicidal effects were evaluated by the growth controlling degrees (%) ranging from 0 (equivalent to the non-treated plot) to 100 (complete kill), whereby the results shown in Table 3, were obtained.

| Structure (SMILES) | Growth controlling degree (%) wheat |
| --- | --- |
| CC(C)C(c1cnccc1C(F)(F)F)N(C)S(=O)(=O)c1ccc(F)cc1 (racemic) [I-124] | 60% |

Each molecule was assayed on prickly sida (assay: Test Example 1: foliage treatment, upland pot test). Settings: active ingredient 500 g/ha, observed 18th to 23rd day, 0 = non-treated, 100 = complete kill.
Format: in vivo, Sida spinosa L.

| Structure (SMILES) | Growth controlling degree (%) Prickly sida |
| --- | --- |
| CC(C)C(c1cnccc1C(F)(F)F)N(C)S(=O)(=O)c1ccc(F)cc1 (racemic) [I-124] | 80% |

The molecules below were run on corn (assay: Test Example 1: foliage treatment, upland pot test). Settings: crop, active ingredient 500 g/ha, observed 18th to 23rd day, 0 = non-treated, 100 = complete kill.
Format: in vivo, Zea mays L.
Outline: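 Corn seeds were sown in upland field soil held in a 1/170,000 ha pot and grown to the 2.1 to 3.2 leaf stage. A wettable powder or emulsifiable concentrate of the test compound was diluted with water at 500 L/ha, given 0.1% (v/v) agricultural spreader, and sprayed onto the foliage with a small sprayer. Growth controlling degree (%) was scored visually 18th to 23rd days later, from 0 (non-treated) to 100 (complete kill).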

| Structure (SMILES) | Growth controlling degree (%) Corn |
| --- | --- |
| CC(C)C(c1cnccc1C(F)(F)F)N(C)S(=O)(=O)c1ccc(F)cc1 (racemic) [I-124] | 60% |

What follows are molecules tested on soybean (assay: Test Example 2: soil surface treatment, upland pot test). Settings: active ingredient 500 g/ha, observed 20th to 28th day.
Format: in vivo, Glycine max Merr.
Outline: as §3

| Structure (SMILES) | Growth controlling degree (%) Soyabean |
| --- | --- |
| CC(C)C(c1cnccc1C(F)(F)F)N(C)S(=O)(=O)c1ccc(F)cc1 (racemic) [I-124] | 30% |

These molecules were tested on rice (var. Nihonbare) (assay: Test Example 3: paddy pot test, transplanted rice). Settings: active ingredient 250 g/ha, applied 4th day after transplantation, visually observed 21st day after application, 0 = non-treated, 100 = complete kill.
Format: in vivo, Oryza sativa L.
Outline: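 Rice (2-leaf stage) was transplanted 3 cm deep into puddled, leveled paddy soil under 3–4 cm flooding. On day 4 after transplanting, diluted wettable powder or emulsifiable concentrate was pipetted onto the water at a predetermined active-ingredient dose. Growth control (0 = untreated, 100 = complete kill) was scored visually 21 days later.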

| Structure (SMILES) | Growth controlling degree (%) Rice |
| --- | --- |
| CC(C)C(c1cnccc1C(F)(F)F)N(C)S(=O)(=O)c1ccc(F)cc1 (racemic) [I-124] | 0% |

What follows are molecules tested on rice (assay: Test Example 2: soil surface treatment, upland pot test). Settings: active ingredient 500 g/ha, observed 20th to 28th day.
Format: in vivo, Oryza sativa L.
Outline: as §3

| Structure (SMILES) | Growth controlling degree (%) Rice |
| --- | --- |
| CC(C)C(c1cnccc1C(F)(F)F)N(C)S(=O)(=O)c1ccc(F)cc1 (racemic) [I-124] | 20% |

Each molecule was assayed on soybean (assay: Test Example 1: foliage treatment, upland pot test). Settings: crop, active ingredient 500 g/ha, observed 18th to 23rd day, 0 = non-treated, 100 = complete kill.
Format: in vivo, Glycine max Merr.
Outline: as §1

| Structure (SMILES) | Growth controlling degree (%) Soybean |
| --- | --- |
| CC(C)C(c1cnccc1C(F)(F)F)N(C)S(=O)(=O)c1ccc(F)cc1 (racemic) [I-124] | 80% |

The molecules below were run on crabgrass (assay: Test Example 2: soil surface treatment, upland pot test). Settings: active ingredient 500 g/ha, observed 20th to 28th day.
Format: in vivo, Digitaria sanguinalis L.
Outline: as §3

| Structure (SMILES) | Growth controlling degree (%) Crabgrass |
| --- | --- |
| CC(C)C(c1cnccc1C(F)(F)F)N(C)S(=O)(=O)c1ccc(F)cc1 (racemic) [I-124] | 100% |

These molecules were tested on redroot pigweed in the same assay as above. Settings: active ingredient 500 g/ha, observed 20th to 28th day.
Format: in vivo, Amaranthus retroflexus L.
Outline: as §3

| Structure (SMILES) | Growth controlling degree (%) Redroot pigweed |
| --- | --- |
| CC(C)C(c1cnccc1C(F)(F)F)N(C)S(=O)(=O)c1ccc(F)cc1 (racemic) [I-124] | 60% |

What follows are molecules tested on prickly sida in the same assay as above. Settings: active ingredient 500 g/ha, observed 20th to 28th day.
Format: in vivo, Sida spinosa L.
Outline: as §3

| Structure (SMILES) | Growth controlling degree (%) Prickly sida |
| --- | --- |
| CC(C)C(c1cnccc1C(F)(F)F)N(C)S(=O)(=O)c1ccc(F)cc1 (racemic) [I-124] | 90% |

Each molecule was assayed on redroot pigweed (assay: Test Example 1: foliage treatment, upland pot test). Settings: active ingredient 500 g/ha, observed 18th to 23rd day, 0 = non-treated, 100 = complete kill.
Format: in vivo, Amaranthus retroflexus L.

| Structure (SMILES) | Growth controlling degree (%) Redroot pigweed |
| --- | --- |
| CC(C)C(c1cnccc1C(F)(F)F)N(C)S(=O)(=O)c1ccc(F)cc1 (racemic) [I-124] | 50% |

What follows are molecules tested on green foxtail (assay: Test Example 2: soil surface treatment, upland pot test). Settings: active ingredient 500 g/ha, observed 20th to 28th day.
Format: in vivo, Setaria viridis L.
Outline: as §3

| Structure (SMILES) | Growth controlling degree (%) Green foxtail |
| --- | --- |
| CC(C)C(c1cnccc1C(F)(F)F)N(C)S(=O)(=O)c1ccc(F)cc1 (racemic) [I-124] | 100% |

These molecules were tested on corn in the same assay as above. Settings: active ingredient 500 g/ha, observed 20th to 28th day.
Format: in vivo, Zea mays L.
Outline: as §3

| Structure (SMILES) | Growth controlling degree (%) Corn |
| --- | --- |
| CC(C)C(c1cnccc1C(F)(F)F)N(C)S(=O)(=O)c1ccc(F)cc1 (racemic) [I-124] | 20% |

What follows are molecules tested on velvetleaf in the same assay as above. Settings: active ingredient 500 g/ha, observed 20th to 28th day.
Format: in vivo, Abutilon theophrasti MEDIC.
Outline: as §3

| Structure (SMILES) | Growth controlling degree (%) Velvetleaf |
| --- | --- |
| CC(C)C(c1cnccc1C(F)(F)F)N(C)S(=O)(=O)c1ccc(F)cc1 (racemic) [I-124] | 80% |

These molecules were tested on velvetleaf (assay: Test Example 1: foliage treatment, upland pot test). Settings: active ingredient 500 g/ha, observed 18th to 23rd day, 0 = non-treated, 100 = complete kill.
Format: in vivo, Abutilon theophrasti MEDIC.

| Structure (SMILES) | Growth controlling degree (%) Velvetleaf |
| --- | --- |
| CC(C)C(c1cnccc1C(F)(F)F)N(C)S(=O)(=O)c1ccc(F)cc1 (racemic) [I-124] | 70% |

The molecules below were run on barnyardgrass (assay: Test Example 3: paddy pot test, application under submerged conditions). Settings: active ingredient 250 g/ha; submerged application at 0.5 leaf stage; visually observed 14 days after application; 0 = non-treated, 100 = complete kill.
Format: in vivo, Echinochloa crus-galli L.
Outline: as §2

| Structure (SMILES) | Growth controlling degree (%) Barnyardgrass |
| --- | --- |
| CC(C)C(c1cnccc1C(F)(F)F)N(C)S(=O)(=O)c1ccc(F)cc1 (racemic) [I-124] | 100% |

What follows are molecules tested on wheat (assay: Test Example 2: soil surface treatment, upland pot test). Settings: active ingredient 500 g/ha, observed 20th to 28th day.
Format: in vivo, Triticum spp.
Outline: as §3

| Structure (SMILES) | Growth controlling degree (%) wheat |
| --- | --- |
| CC(C)C(c1cnccc1C(F)(F)F)N(C)S(=O)(=O)c1ccc(F)cc1 (racemic) [I-124] | 10% |

Each molecule was assayed on rice (assay: Test Example 1: foliage treatment, upland pot test). Settings: crop, active ingredient 500 g/ha, observed 18th to 23rd day, 0 = non-treated, 100 = complete kill.
Format: in vivo, Oryza sativa L.
Outline: as §1

| Structure (SMILES) | Growth controlling degree (%) Rice |
| --- | --- |
| CC(C)C(c1cnccc1C(F)(F)F)N(C)S(=O)(=O)c1ccc(F)cc1 (racemic) [I-124] | 40% |
